Laboratory results taken from US11111222B2, “Hydroxyeicosatrienoic acid compounds and their use as therapeutic agents” (THE REGENTS OF THE UNIVERSITY OF MICHIGAN, priority 2016, dated 2021).
One block for each molecule: values may come before it.

What was measured:
[1] = tested on: washed platelets from WT or 12-LOX−/− mice; experiment: Platelet aggregation, washed murine platelets (lumi-aggregometer); type: cell-based, mouse; conditions: 10 min
Experimental: The 12-LOX null C57BL/6 (12-LOX^−/−) mice were generated using homozygous breeding pairs and wild-type (WT) C57BL/6 ([…]) mice were purchased (Jackson Laboratory). […] Mouse blood was diluted with equal volumes of Tyrode's buffer (10 mM HEPES, 11.9 mM sodium bicarbonate, 127.2 mM sodium chloride, 5 mM potassium chloride, 0.4 mM sodium phosphate monobasic, 1 mM magnesium chloride, and 5 mM D-glucose) and centrifuged at 200×g. Platelet-rich-plasma (PRP) was transferred to a tube containing 10× acid citrate dextrose solution (ACD) (2.5% sodium citrate, 1.5% citric acid, and 2% D-glucose) and apyrase (0.02 U/mL), and centrifuged at 2000×g. Platelet count was adjusted to 3×10^8 platelets/mL with Tyrode's buffer for all studies.
A lumi-aggregometer (Chrono-log model 700D) was used to measure platelet aggregation under stirring conditions (1100 rpm) at 37° C. Prior to agonist stimulation platelets were incubated with a preselected PUFA or oxylipin for 10 minutes.

adenylyl cyclase = experiment: LC/MS quantification of cAMP in washed human platelets; type: cell-based; conditions: 25 μM, 1 min; platelets pre-treated with 10 μM IBMX; vs DMSO
Experimental: Washed human platelets were treated with the specific ligand or vehicle control for 1 min at room temperature, and quenched with an equal volume of ice-cold 2× platelet lysis buffer containing protease and phosphatase inhibitors. Lysed platelet samples were centrifuged at 14,000 g for 7 min at 4° C. to pellet cytoskeleton and the supernatant was stored in −80° C.
To prepare the sample for LC/MS injection, 200 μL of the supernatant was spiked with 400 pg of adenosine-3′,5′-cyclic-13C5 monophosphate (^13C5-cAMP) (Toronto Research Chemicals, Inc.), an internal standard, and 600 μL of LC/MS grade acetonitrile (Fisher Scientific). The sample was briefly vortexed and centrifuged at 14,000 rpm for 10 min at 4° C. The supernatants were then air dried in a SpeedVac and reconstituted in 200 μL of LC/MS grade water and centrifuged at 10,000 rpm for 5 min at 4° C. and used for LC/MS injection.
The separation and detection of cAMP was performed on a Waters ACQUITY UPLC system equipped with a Xevo Triple Quadrupole Mass Spectrometer (TQ-S MS/MS). […]
The mass spectrometer was operated with an ESI source in positive mode. […] Cyclic AMP (cAMP) was quantitated using ^13C5-cAMP as the internal standard. […]

VASP (serine 157) = experiment: VASP phosphorylation in human platelets; type: cell-based; conditions: 1 min
Experimental: Washed platelets were treated with PUFA or PUFA metabolite (12(S)-HETrE or compound IIc) for one minute, then directly lysed in 5× Laemmeli sample buffer (1.5 M Tris-HCl, pH 6.8, glycerol, 5% β-mercaptoethanol, 10% sodium dodecyl sulfate (SDS), and 1% bromophenol blue). The samples were boiled for five minutes and then run on a 10% SDS-PAGE gel. The levels of total and phospho-VASP (serine 157) were quantified by Western Blot using an Odyssey imaging system (LI-CoR).

Gαs = experiment: [35S]GTPγS binding to immunoprecipitated Gαs, platelet membranes; type: biochemical; conditions: human platelet membranes, vs DMSO
Experimental: PRP was isolated from whole blood as described above and then incubated with 1 mM aspirin for 1 hour at 37° C. Platelets were pelleted at 2000 g for 10 min in the presence of 10×ACD and apyrase. The pelleted platelets were washed with Tyrode's and centrifuged at 2000×g with 10×ACD for 10 min at room temperature. The platelets were flash frozen with liquid nitrogen and then resuspended in cold detergent-free TME buffer (50 mM Tris-HCl, pH 7.5, 20 mM MgCl2, 2 mM EDTA, and 100 mM NaCl) with 1 μM GDP and protease and phosphatase inhibitors to lyse the platelets. The lysed platelets were centrifuged at 1500 g at 4° C. for 5 min. The supernatant was collected and centrifuged at 100,000×g for 30 min at 4° C. The pelleted membranes were resuspended in TME buffer with 1 μM GDP and stored at −80° C. prior to use. Fatty acid metabolites, agonists, or DMSO and [^35S]GTPγS (10 nM) were added to platelet membranes (60 μg/reaction) on ice, and the tubes were immediately transferred to a 30° C. water bath shaker for 20 min. The reaction was terminated by the addition of ice-cold IP buffer (50 mM Tris-HCl, pH 7.5, 20 mM MgCl2, 150 mM NaCl, 0.5% Nonidet P-40, 0.33% aprotinin, 0.1 mM GDP, and 0.1 mM GTP). The samples were pre-cleared with Protein A agarose beads and normal rabbit IgG for 30 min on a nutator at 4° C. and then aliquoted equally into two tubes containing either normal rabbit IgG or a Gs antibody that had been conjugated to Protein A agarose beads. The samples were incubated on a nutator for 1 hr at 4° C. and washed 4 times with IP buffer and 1 time in TME buffer. The samples were boiled in 0.5% SDS for 30 sec, and the supernatants were collected following brief centrifugation. The supernatants were analyzed in 8 mL of scintillation fluid. The background counts for the normal rabbit IgG (50-200 cpm) for each sample were subtracted from the anti-Gs immunoprecipitated samples prior to analyzing the data.

Rap1 = Rap1 activation in washed platelets (Rap1-GTP pull-down, Western blot); type: cell-based, mouse; conditions: 10 μM DGLA, PAR4-AP 50, 100, 200 μM
Experimental: Following 1 minute of stimulation platelets were lysed with 2× platelet lysis buffer (100 mM Tris HCl, pH 7.4, 150 mM NaCl, 2% IGEPAL, 1% sodium deoxycholate, and 0.05% SDS) containing protease and phosphatase inhibitors. The cytoskeleton was pelleted by centrifugation at 14000×g for 7 minutes at 4° C. Active Rap1 was selectively captured from the supernatant by incubating GST-tagged Rap1 binding domain of RalGDS conjugated to glutathione sepharose beads for one hour on a nutator at 4° C. The beads were then washed 5 times with IP buffer and resuspended in 2× Laemmeli reducing buffer (62.5 mM Tris-HCl, pH 6.8, 2% SDS, 25% glycerol, 0.01% bromophenol blue, 5% β-mercaptoethanol). The samples were boiled for 10 minutes and then loaded onto a 10% SDS-polyacrylamide gel electrophoresis (PAGE) gel. Western blots were performed using a Rap1 antibody and quantified with a LI-COR imager.

[2] = tested on: thrombus formation (platelet and fibrin) in cremaster arterioles; experiment: Laser-induced cremaster arteriole thrombosis model; type: in vivo, mouse; conditions: vs vehicle
Experimental: Wild type (WT) or 12-LOX^−/− mice (12 weeks of age) were anesthetized by intraperitoneal injection of ketamine/xylazine (100 mg/kg) prior to the exposure of the cremaster muscle arterioles under a dissecting microscope with constant perfusion of preheated bicarbonate-buffered saline (Reheman et al., J Thromb Haemost 3:875-883, 2005; Reheman et al., Blood 113:1809-1817, 2009; Wang et al., J Clin Invest 124:4281-4293, 2014). Anti-platelet (DyLight 488 anti-GPIb, 1 μg/g) and anti-fibrin (Alexa Fluor 647, 0.3 μg/g) antibodies were administered via jugular vein catheter prior to intravital microscopy. DGLA (50 mg/kg) or DMSO (vehicle control) were dissolved in a formulation of 5% DMSO and 45% PEG300 in sterile 1×PBS and then intravenously injected into mice 10 minutes prior to induction of thrombosis. 12(S)-HETrE (6 mg/kg) or equal volume of DMSO (vehicle control) was also intravenously injected into mice 10 minutes prior to induction of thrombosis. Multiple independent thrombi were induced in the arterioles (30-50 μm diameter) in each mouse by a laser ablation system (Ablate! photoablation system; Intelligent Imaging Innovations, Denver, Colo., USA). Images of thrombus formation were acquired in real-time under 63× water-immersion objective with a Zeiss Axio Examiner Z1 fluorescent microscope equipped with solid laser launch system (LaserStack; Intelligent Imaging Innovations) and high-speed sCMOS camera. All captured images were analyzed on Slidebook (Intelligent Imaging Innovations Inc., Denver, Colo., USA).

platelets = conditions: cited from earlier work
washed human platelets = experiment: Human platelet aggregation after pre-treatment with adenylyl cyclase inhibitor SQ 22536; type: cell-based; conditions: platelets pre-treated with SQ 22536 (25 μM, 20 min); iloprost 0.2 to 0.4 nM, 1 min; EC80 PAR4-AP
Experimental: Blood from healthy donors was collected into vacutainers containing buffered sodium citrate, and platelets were isolated by serial centrifugation as described above for mouse platelets. The platelets were resuspended in Tyrode's buffer at 3×10^8 platelets/mL, unless otherwise specified.
A lumi-aggregometer (Chrono-log model 700D) was used to measure platelet aggregation under stirring conditions (1100 rpm) at 37° C. […]

Tail bleeding assay = type: in vivo, mouse; conditions: heparin-treated mice; data not shown
Experimental: Mice were anesthetized with ketamine/xyzaline and placed on a heating pad in prone position, the tip of the tail (5 mm) was excised with a sterile scalpel, and the tails were immediately immersed into isotonic saline solution (0.9%) warmed to 37° C. Bleeding time was assessed until cessation of blood flow from the tail for 1 minute.

[3] = 12-LOX−/− mouse platelets, 10 μM PUFA, EC80 PAR4-AP (200 μM) or collagen (2 or 5 μg/mL), vs vehicle
[4] = WT mouse platelets, 10 μM PUFA, EC80 PAR4-AP (100 μM) or collagen (5 μg/mL), vs DMSO
[5] = 12-LOX−/− mouse platelets, 25 μM 12-LOX oxylipin, EC80 PAR4-AP (200 μM) or collagen (2 or 5 μg/mL), vs vehicle
[6] = WT mouse platelets, 25 μM 12-LOX oxylipin, EC80 PAR4-AP (100 μM) or collagen (5 μg/mL), vs vehicle
[7] = WT mice, 50 mg/kg i.v. 10 min before laser injury

Molecule: CCCCC/C=C\C/C=C\C/C=C\C/C=C\CCCC(=O)O [AA]
- platelet aggregation [1, 3]: no inhibitory effect
- platelet aggregation [1, 4]: no inhibitory effect

Molecule: CC/C=C\C/C=C\CC(O)/C=C/C=C\C/C=C\CCCC(=O)O (centres unmarked) [Compound 12-HEPE, 12-hydroxy-5Z, 8Z, 10E, 14Z, 17Z-eicosapentaenoic acid]
- platelet aggregation [1, 5]: did not inhibit collagen- or PAR4-AP-induced aggregation
- platelet aggregation [1, 6]: did not inhibit collagen- or PAR4-AP-induced aggregation

Molecule: CCCCC/C=C\CC(O)/C=C/C=C\C/C=C\CCCC(=O)O (centres unmarked) [Compound 12-HETE, 12-hydroxy-5Z,8Z,10E,14Z-eicosatetraenoic]
- platelet aggregation [1, 5]: no decrease in collagen- or PAR4-AP-mediated platelet aggregation
- platelet aggregation [1, 6]: no decrease in collagen- or PAR4-AP-mediated platelet aggregation

Molecule: CCCCC/C=C\CC(/C=C/C=C\CCCCCCC(=O)O)OO (centres unmarked) [Compound 12-HpETrE]
- level of intracellular cAMP (adenylyl cyclase): significant increase in the level of intracellular cAMP
- VASP phosphorylation (S157) (VASP (serine 157); 25 μM, vs DMSO): enhanced VASP phosphorylation
- [35S]GTPγS binding to immunoprecipitated Gαs (Gαs; 25 μM): significant increase in [^35S]GTPγS binding

Molecule: CCCCC/C=C\C/C=C\C/C=C\CCCCCSc1n[nH]c(=O)[nH]1 [Compound IIc, 5-(((6Z,9Z,12Z)-octadeca-6,9,12-trien-1-yl)thio)-2,4-dihydro-3H-1,2,4-triazol-3-one]
- VASP phosphorylation (S157) (VASP (serine 157); compound IIc, concentrations not given): dose-dependent phosphorylation of VASP

Molecule: CCCCC/C=C\C/C=C\C/C=C\CCCCCCC(=O)O [DGLA, Dihomo-γ-linolenic acid]
- platelet aggregation [1, 3]: failed to inhibit platelet aggregation
- platelet aggregation [1, 4]: significant inhibition of aggregation
- Rap1 activation (Rap1-GTP) (Rap1; 12-LOX−/− mouse platelets): unable to inhibit Rap1 activation
- Rap1 activation (Rap1-GTP) (Rap1; WT mouse platelets): inhibited Rap1 activation at all concentrations of PAR4-AP tested
- fibrin accumulation in thrombi ([2]; 12-LOX−/− mice, 50 mg/kg i.v.): did not differ
- platelet accumulation in thrombi ([2]; 12-LOX−/− mice, 50 mg/kg i.v.): did not differ
- fibrin accumulation at the site of injury [2, 7]: but not fibrin accumulation
- platelet accumulation at the site of injury [2, 7]: significant reduction in platelet
- VASP phosphorylation (S157) (VASP (serine 157); DGLA 10 μM, vs DMSO): enhanced VASP phosphorylation
- platelet aggregation ex vivo (platelets; literature (Farrow and Willis 1975; Kernoff 1977; Willis 1974)): inhibit platelet aggregation ex vivo
- ex vivo aggregation of platelets after dosing (platelets; platelets from humans, baboons, rabbits and rats that received daily oral doses): significant reduction in ex vivo aggregation

Molecule: CCCCC/C=C\C/C=C\CCCCCCCC(=O)O [LA, linoleic acid]
- platelet aggregation [1, 3]: no inhibitory effect
- platelet aggregation [1, 4]: no inhibitory effect

Molecule: CC#CCC(C)[C@H](O)/C=C/[C@@H]1[C@H]2C/C(=C/CCCC(=O)O)C[C@H]2C[C@H]1O (some centres unmarked) [iloprost]
- PAR4-AP-mediated platelet aggregation (washed human platelets): unable to inhibit PAR4-AP-mediated platelet aggregation
- [35S]GTPγS binding to immunoprecipitated Gαs (Gαs; iloprost 10 μM): significant increase in [^35S]GTPγS binding

- bleeding time (Tail bleeding assay): severe bleeding diathesis
Molecule: heparin
